Assays:
Format in all cases: functional
Staphylococcus aureus [1] = assay: Minimum inhibitory concentration required for the antibacterial activity against Staphylococcus aureus 25455
Escherichia coli [2] = assay: Minimum inhibitory concentration required for the antibacterial activity against Escherichia coli C165
[3] = tested on: Bacteroides thetaiotaomicron; assay: Minimum inhibitory concentration required for the antibacterial activity against Bacillus thetaiotaomicron 235 Munchen
Bacteroides fragilis [4] = assay: Minimum inhibitory concentration required for the antibacterial activity against Bacillus fragilis DSM 2151
Bacteroides fragilis [5] = assay: Minimum inhibitory concentration required for the antibacterial activity against Bacillus fragilis Kr II
[6] = tested on: Bacteroides thetaiotaomicron; assay: Minimum inhibitory concentration required for the antibacterial activity against Bacillus thetaiotaomicron DSM 2079
Escherichia coli [7] = assay: Minimum inhibitory concentration required for the antibacterial activity against Escherichia coli T A261
Micrococcus luteus = assay: Minimum inhibitory concentration required for the antibacterial activity against Micrococcus luteus
Bacteroides ovatus = assay: Minimum inhibitory concentration required for the antibacterial activity against Bacillus ovatus Heidelberg 32
Staphylococcus aureus [8] = assay: Minimum inhibitory concentration required for the antibacterial activity against Staphylococcus aureus 79B Innsbruck
Proteus vulgaris [9] = assay: Minimum inhibitory concentration required for the antibacterial activity against Proteus vulgaris N6
Anaerococcus prevotii = assay: Minimum inhibitory concentration required for the antibacterial activity against Peptococcus prevotii DSM 20548
Klebsiella = assay: Minimum inhibitory concentration required for the antibacterial activity against Klebsiella 6097
Proteus vulgaris [10] = assay: Minimum inhibitory concentration required for the antibacterial activity against Proteus vulgaris 9023
Bacteroides fragilis [11] = assay: Minimum inhibitory concentration required for the antibacterial activity against Bacillus fragilis ES 25
[12] = tested on: Prevotella melaninogenica; assay: Minimum inhibitory concentration required for the antibacterial activity against Bacillus melaninogenicus Heidelberg
Staphylococcus aureus [13] = assay: Minimum inhibitory concentration required for the antibacterial activity against Staphylococcus aureus 21b Belgium
Bacteroides fragilis [14] = assay: Minimum inhibitory concentration required for the antibacterial activity against Bacillus fragilis 4661 Kr
Pseudomonas aeruginosa = assay: Minimum inhibitory concentration required for the antibacterial activity against Pseudomonas aeruginosa Walter
Staphylococcus aureus [15] = assay: Minimum inhibitory concentration required for the antibacterial activity against Staphylococcus aureus 48N Munchen
Proteus mirabilis = assay: Minimum inhibitory concentration required for the antibacterial activity against Proteus mirabilis 1235
[16] = tested on: Peptostreptococcus anaerobius; assay: Minimum inhibitory concentration required for the antibacterial activity against Peptostrept. anaer. Kr II

For `C[C@@H](O)[C@H]1C(=O)N2C(C(=O)[O-])=C(C(C)(C)C)O[C@H]12.[K+]`, which MIC (Staphylococcus aureus [1]) is on record?
The MIC was 0.12 µg/mL.

What about the MIC (Escherichia coli [2]) of the same molecule?
The MIC was 8 µg/mL.

And the MIC [3]?
Its MIC is 4 µg/mL.

And the MIC (Bacteroides fragilis [4])?
The MIC was 1 µg/mL.

And the MIC (Bacteroides fragilis [5])?
The MIC was 2 µg/mL.

What about the MIC [6] of the same molecule?
The MIC was 1 µg/mL.

And the MIC (Escherichia coli [7])?
The MIC was 2 µg/mL.

And the MIC (Micrococcus luteus)?
Its MIC is at most 0.06 µg/mL.

What about the MIC (Bacteroides ovatus) of the same molecule?
Its MIC is 2 µg/mL.

And the MIC (Staphylococcus aureus [8])?
Its MIC is at most 0.78 µg/mL.

What about the MIC (Proteus vulgaris [9]) of the same molecule?
Its MIC is 1 µg/mL.

What about the MIC (Anaerococcus prevotii) of the same molecule?
Its MIC is 2 µg/mL.

And the MIC (Klebsiella)?
The MIC was 16 µg/mL.

And the MIC (Proteus vulgaris [10])?
The MIC was 1 µg/mL.

What about the MIC (Bacteroides fragilis [11]) of the same molecule?
The MIC was 2 µg/mL.

And the MIC [12]?
The MIC was 4 µg/mL.

What about the MIC (Staphylococcus aureus [13]) of the same molecule?
Its MIC is 12.5 µg/mL.

And the MIC (Bacteroides fragilis [14])?
The MIC was 2 µg/mL.

And the MIC (Pseudomonas aeruginosa)?
Its MIC is over 128 µg/mL.

What about the MIC (Staphylococcus aureus [15]) of the same molecule?
The MIC was at most 0.78 µg/mL.

What about the MIC (Proteus mirabilis) of the same molecule?
Its MIC is 4 µg/mL.

What about the MIC [16] of the same molecule?
Its MIC is 0.25 µg/mL.
